According to US20250333394A1, “Tiparp Inhibitor Compounds” (AbbVie Inc., priority 2024, published 2025):

Columns and labels:
NCI-H1373 cells = test: NCI-H1373 CellTiter-Glo cell assay for TIPARP inhibition; type: cell-based, human; settings: Homo sapiens, NCI-H1373, 144 h; 6 days, 100 nM 10-Cl-BBQ in medium; read-out: NCI-H1373 CTG EC50
Procedure: The NCI-H1373 CellTiter-Glo® assay was used to determine cell numbers after TIPARP inhibition-induced cell cycle arrest, and enabled screening of compounds for cellular TIPARP inhibition potency.
Compound stock solutions (10 mM) were serially diluted in 3-fold increments in dimethyl sulfoxide. Sample aliquots (120 nL) were dispensed into Corning® 384-well Flat Clear Bottom White Polystyrene TC-treated Microplates (Corning Life Sciences, Corning, NY, USA) using an ECHO® 550 acoustic Labcyte dispenser (Beckman-Coulter Life Sciences, Indianapolis, IN, USA) to achieve final concentrations between 30 μM and 0.5 nM in the assay. This was followed by the addition of 40 μL of 1000 NCI-H1373 cells (ATCC®, Manassas, VA, USA) in complete growth medium RPMI 1640 growth medium (Thermo Fisher Scientific, Waltham, MA, USA) supplemented with 20 mg/L L-glutamate, 25 mM HEPES (4-(2-hydroxyethyl)-1-piperazineethanesulfonic acid), 10% (v/v) heat inactivated FBS (fetal bovine serum), 1% (w/v) penicillin-streptomycin, and 100 nM 10-Cl-BBQ (10-chloro-7H-benzimidazo[2,1-a]benz[de]isoquinolin-7-one, (Tocris, Minneapolis, MN, USA). Duplicate cell plates with 40 μL cells/well along with various concentrations of compounds were kept in Nunc™ Square BioAssay Dishes (Thermo Fisher Scientific) at 98% relative humidity in a 5% C02 incubator at 37° C. for 6 days. On day 7, plates were moved to ambient lab conditions for 10 minutes until the temperature equilibrated. Following equilibration, CellTiter-Glo® Luminescent Cell Viability Assay reagent (Promega™, Madison, WI, USA) was added (15 μL) to each well of the plates. After a 20 minutes incubation, luminescence was detected using a ViewLux™ microplate imager (PerkinElmer, Waltham, MA, USA). Data analysis was performed using GraphPad Prism (Dotmatics, Boston, MA, USA).

PARP1 GST = PARP1 GST (Homo sapiens (Human), UniProt P09874); test: TR-FRET binding assay, PARP1; settings: Probe 2, 2 hours incubation
Procedure: (§1) TR-FRET assays were used to measure the binding of compounds to TIPARP and PARP1, and to characterize biochemical selectivity. Compound stock solutions (10 mM) were serially diluted in 3-fold increments in dimethyl sulfoxide (DMSO). Diluted compounds were dispensed (30 nL) into white ProxiPlate-384-well plates (PerkinElmer, Waltham, MA, USA) using an ECHO® 550 acoustic Labcyte dispenser (Beckman-Coulter Life Sciences, Indianapolis, IN, USA) to achieve a final starting concentration of 30 μM to 0.5 nM in the assay. This was followed by addition of 5 μL of 2× protein/probe mix (Table 2) made in assay buffer (Tris-HCl 50 mM pH 8.0; 5 mM MgCl2; 5 μM ZnCl2; 1 mM DTT (dithiothreitol); 0.15% BSA (bovine serum albumin) (w/v); and 0.01% TritonX-100 (w/v)) at final concentrations listed in Table 2. Subsequently, 5 μL of 2× antibody (Tb-labeled anti-GST antibody, Thermo Fisher Scientific, Waltham, MA, USA) in HEPES buffered saline was added to each well at a final concentration of 1 nM. The samples were then incubated for 2 hours under ambient conditions. Fluorescence was measured and TR-FR ET ratios were determined on an EnVision multimode plate reader (PerkinElmer) using a 520 nanometer (nm) excitation wavelength and collecting fluorescence emission at 495 nm.

TIPARP GST-(TEV) = TIPARP GST-(TEV) (Homo sapiens (Human), UniProt Q7Z3E1); test: TR-FRET binding assay, TIPARP; settings: for IC50: TR-FRET, Probe 1, 2 hours incubation; for PARP1/TIPARP IC50 Ratio: ratio of PARP1 GST IC50 to TIPARP GST-(TEV) IC50
Text: as §1, with “The full-length cDNA encoding the human TIPARP (NP_001171647.1, UniProtKB-Q7Z3E1) of 657 amino acids was the template to generate the expression construct. […] The TIPARP fusion protein includes GST, glutathione S-transferase, a 26 kDa protein whose DNA sequence is frequently integrated into expression vectors for production of recombinant proteins. A […], was cloned into vector pFastBacTM 1 (Thermo Fisher Scientific) with an N-terminal GST tag followed by a TEV protease site to produce the TIPARP fusion protein, TIPARP GST-(TEV). TR-FRET” for “TR-FRET”, “nm. […] [table]” for “nm.”

DLD-1 BRCA2 (−/−) cells = test: CellTiter-Glo DLD-1 BRCA2 (−/−) cell assay for PARP1/2 inhibition; type: cell-based; settings: Homo sapiens, 144 h, 6 days, read-out: DLD-1 BRCA2 (−/−) CTG EC50
Text: (§2) The DLD-1 BRCA2 (−/−) CellTiter-Glo® assay measured the synthetic lethality of PARP1/2 inhibitors and was used as a surrogate to allow measurement of activity of both PARP1 and PARP2 in cells. If PARP1 and PARP2 are inhibited and are trapped onto chromatin during DNA replication, there is replication fork stalling and accumulation of double strand breaks. In BR CA wild-type cells, the resulting double strand DNA breaks are repaired via homologous recombination. In cells with mutation of BRCA1 or BRCA2, homologous recombination repair of DNA double strand breaks is defective, and cell death occurs after PARP1/2 inhibitor treatment (Lord C J, Ashworth A. PARP inhibitors: synthetic lethality in the clinic. Science. 2017 Mar. 17; 355(6330):1152-1158). Testing compounds in viability assays with the DLD-1-BR CA 2 (−/−) and DLD-1 parent cell enabled assessment on PARP1/2-dependent (cytotoxicity in the BRCA2 (−/−) cells only) vs. non-selective cytotoxicity in both cell lines.
(§3) Compound stock solutions (10 mM) were serially diluted in 3-fold increments in dimethyl sulfoxide (DMSO). Sample aliquots (120 nL) were dispensed into Corning® 384-well Flat Clear Bottom White Polystyrene TC-treated Microplates (Corning Life Sciences, Corning, NY, USA) using an ECHO® 550 acoustic Labcyte dispenser (Beckman-Coulter Life Sciences, Indianapolis, IN, USA) to achieve concentrations between 30 μM and 0.5 nM in the assay. In the assay, 40 μL of 500 DLD-1 parent cells (HORIZON® Therapeutics, Deerfield, IL, USA) or 40 μL of 1200 DLD-1-BRCA2 (−/−) cells (HORIZON Therapeutics) in complete growth medium containing RPMI 1640 growth medium (ThermoFisher Scientific, Waltham, MA, USA) supplemented with 20 mg/L L-glutamate, 25 mM HEPES (4-(2-hydroxyethyl)-1-piperazineethanesulfonic acid), 10% (v/v) heat inactivated FBS (fetal bovine serum), and 1% (w/v) Penicillin-Streptomycin were added.
(§4) Duplicate cell plates with 40 μL cells/well along with various concentrations of compounds were kept in Nunc™ Square BioAssay Dishes (Thermo Fisher Scientific) at 98% relative humidity in a 5% CO2 incubator at 37° C. for 6 days. On day 7, plates were moved to ambient lab conditions for 10 minutes until the temperature equilibrated. Following equilibration, CellTiter-Glo® Luminescent Cell Viability Assay reagent (Promega™, Madison, WI, USA) was added (15 μL) to each well of the plates. After a 20 minutes incubation, luminescence was detected using a ViewLux™ microplate imager (PerkinElmer, Waltham, MA, USA). Data analysis was performed using GraphPad Prism (Dotmatics, Boston, MA, USA).

DLD-1 parent cells = test: CellTiter-Glo DLD-1 parent cell assay; type: cell-based; settings: Homo sapiens, 144 h, 6 days, read-out: DLD-1 CTG EC50
Text: as §2, §3, §4

Chain of TIPARP GST-(TEV) (Q7Z3E1 441-657): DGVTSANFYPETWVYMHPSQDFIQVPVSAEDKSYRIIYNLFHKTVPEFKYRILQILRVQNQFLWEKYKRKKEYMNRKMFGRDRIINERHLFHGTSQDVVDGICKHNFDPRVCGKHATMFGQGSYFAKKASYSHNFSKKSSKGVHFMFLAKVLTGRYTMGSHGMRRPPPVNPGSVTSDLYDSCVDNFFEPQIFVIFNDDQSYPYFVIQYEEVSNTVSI
Chain of PARP1 GST (P09874 whole entry): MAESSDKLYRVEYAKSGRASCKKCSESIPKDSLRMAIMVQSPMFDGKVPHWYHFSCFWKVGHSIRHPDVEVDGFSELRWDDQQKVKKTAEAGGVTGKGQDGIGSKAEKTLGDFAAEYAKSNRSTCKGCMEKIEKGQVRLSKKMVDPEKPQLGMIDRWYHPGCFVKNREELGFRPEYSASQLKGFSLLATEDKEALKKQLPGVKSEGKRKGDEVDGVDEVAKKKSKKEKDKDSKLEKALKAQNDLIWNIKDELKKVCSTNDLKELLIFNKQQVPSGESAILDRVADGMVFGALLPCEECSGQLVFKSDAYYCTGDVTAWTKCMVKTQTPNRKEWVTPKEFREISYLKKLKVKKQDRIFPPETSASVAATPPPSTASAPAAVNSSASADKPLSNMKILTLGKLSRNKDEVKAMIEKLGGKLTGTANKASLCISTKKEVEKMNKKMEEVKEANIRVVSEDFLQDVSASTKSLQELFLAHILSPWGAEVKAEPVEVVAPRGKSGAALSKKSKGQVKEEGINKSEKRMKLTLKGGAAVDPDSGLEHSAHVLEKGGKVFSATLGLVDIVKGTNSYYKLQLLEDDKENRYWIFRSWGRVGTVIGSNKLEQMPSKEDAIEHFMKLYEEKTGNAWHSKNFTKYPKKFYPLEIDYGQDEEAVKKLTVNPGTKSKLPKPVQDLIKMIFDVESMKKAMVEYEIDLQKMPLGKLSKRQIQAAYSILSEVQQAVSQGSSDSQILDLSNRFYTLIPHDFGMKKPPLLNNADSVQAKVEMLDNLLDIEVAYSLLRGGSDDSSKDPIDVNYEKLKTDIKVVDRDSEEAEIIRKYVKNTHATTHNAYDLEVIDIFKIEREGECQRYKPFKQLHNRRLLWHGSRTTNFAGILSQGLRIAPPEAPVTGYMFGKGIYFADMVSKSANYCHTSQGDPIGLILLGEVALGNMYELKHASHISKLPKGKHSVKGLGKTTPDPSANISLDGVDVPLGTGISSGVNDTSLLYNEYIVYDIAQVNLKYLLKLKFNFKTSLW

`C[C@H]1CN(C(=O)[C@H]2C[C@@H](c3c[nH]c(=O)c(C(F)(F)F)c3)C2)CCN1c1ncc(C(C)(C)O)cn1` [Example 10, 5-[(1R,3s)-3-{(3S)-4-[5-(2-hydroxypropan-2-yl)pyrimidin-2-yl]-3-methylpiperazine-1-carbonyl}cyclobutyl]-3-(trifluoromethyl)pyridin-2(1H)-one] was tested, and the EC50 (NCI-H1373 cells) was 284 nM, the IC50 (PARP1 GST) was 3080 nM and the IC50 (TIPARP GST-(TEV)) was 10.1 nM. For the same molecule, the “PARP1/TIPARP IC50 Ratio” value (TIPARP GST-(TEV)) was 305, the EC50 (DLD-1 BRCA2 (−/−) cells) was greater than 30000 nM and the EC50 (DLD-1 parent cells) was greater than 30000 nM.

`C[C@H]1CN(c2ncc(C(C)(C)O)cn2)CCN1C(=O)[C@H]1C[C@@H](c2c[nH]c(=O)c(C(F)(F)F)c2)C1` [Example 11, 5-[(1R,3s)-3-{(2S)-4-[5-(2-hydroxypropan-2-yl)pyrimidin-2-yl]-2-methylpiperazine-1-carbonyl}cyclobutyl]-3-(trifluoromethyl)pyridin-2(1H)-one] showed an EC50 (NCI-H1373 cells) of 337 nM, an IC50 (PARP1 GST) of 616 nM and an IC50 (TIPARP GST-(TEV)) of 10.9 nM. The “PARP1/TIPARP IC50 Ratio” value (TIPARP GST-(TEV)) was 56.5, the EC50 (DLD-1 BRCA2 (−/−) cells) was 1180 nM and the EC50 (DLD-1 parent cells) was 16000 nM.

`C[C@@H]1CN(c2ncc(C(F)(F)F)cn2)CCN1C(=O)[C@H]1C[C@@H](Cc2c[nH]c(=O)c(C(F)(F)F)c2)C1` [Example 12, 5-{[(1S,3s)-3-{(2R)-2-methyl-4-[5-(trifluoromethyl)pyrimidin-2-yl]piperazine-1-carbonyl}cyclobutyl]methyl}-3-(trifluoromethyl)pyridin-2(1H)-one] was tested, and the EC50 (NCI-H1373 cells) was 29.2 nM, the IC50 (PARP1 GST) was 3650 nM and the IC50 (TIPARP GST-(TEV)) was 3.16 nM. For the same molecule, the “PARP1/TIPARP IC50 Ratio” value (TIPARP GST-(TEV)) was 1160, the EC50 (DLD-1 BRCA2 (−/−) cells) was 5480 nM and the EC50 (DLD-1 parent cells) was 11100 nM.

In the case of `C[C@@H]1CN(c2ncc(C(F)(F)F)cn2)C[C@H](C)N1C(=O)[C@H]1C[C@@H](Cc2c[nH]c(=O)c(C(F)(F)F)c2)C1` [Example 13, 5-{[(1s,3s)-3-{(2R,6S)-2,6-dimethyl-4-[5-(trifluoromethyl)pyrimidin-2-yl]piperazine-1-carbonyl}cyclobutyl]methyl}-3-(trifluoromethyl)pyridin-2(1H)-one], the EC50 (NCI-H1373 cells) is reported as 33.3 nM, the IC50 (PARP1 GST) is reported as 7380 nM and the IC50 (TIPARP GST-(TEV)) is reported as 3.79 nM. For the same molecule, the “PARP1/TIPARP IC50 Ratio” value (TIPARP GST-(TEV)) was 1950, the EC50 (DLD-1 BRCA2 (−/−) cells) was 6960 nM and the EC50 (DLD-1 parent cells) was 11100 nM.

In the case of `C[C@@H]1CN(C(=O)[C@H]2C[C@@H](Cc3c[nH]c(=O)c(C(F)(F)F)c3)C2)C[C@H](C)N1c1ncc(C(F)(F)F)cn1` [Example 14, 5-{[(1s,3s)-3-{(3R,5S)-3,5-dimethyl-4-[5-(trifluoromethyl)pyrimidin-2-yl]piperazine-1-carbonyl}cyclobutyl]methyl}-3-(trifluoromethyl)pyridin-2(1H)-one], the EC50 (NCI-H1373 cells) is reported as 10.9 nM, the IC50 (PARP1 GST) is reported as 4110 nM and the IC50 (TIPARP GST-(TEV)) is reported as 2.17 nM. The “PARP1/TIPARP IC50 Ratio” value (TIPARP GST-(TEV)) was 1890, the EC50 (DLD-1 BRCA2 (−/−) cells) was 4490 nM and the EC50 (DLD-1 parent cells) was 14300 nM.

`C[C@@H]1CN(C(=O)[C@H]2C[C@@H](Cc3c[nH]c(=O)c(C(F)(F)F)c3)C2)CCN1c1ncc(C(F)(F)F)cn1` [Example 15, 5-{[(1S,3s)-3-{(3R)-3-methyl-4-[5-(trifluoromethyl)pyrimidin-2-yl]piperazine-1-carbonyl}cyclobutyl]methyl}-3-(trifluoromethyl)pyridin-2(1H)-one] was tested, and the EC50 (NCI-H1373 cells) was 14.8 nM, the IC50 (PARP1 GST) was 417 nM and the IC50 (TIPARP GST-(TEV)) was 2.15 nM. The “PARP1/TIPARP IC50 Ratio” value (TIPARP GST-(TEV)) was 194, the EC50 (DLD-1 BRCA2 (−/−) cells) was 1380 nM and the EC50 (DLD-1 parent cells) was 10300 nM.

`C[C@H]1CN(C(=O)[C@H]2C[C@@H](Cc3c[nH]c(=O)c(C(F)(F)F)c3)C2)CCN1c1ncc(C(F)(F)F)cn1` [Example 16, 5-{[(1R,3s)-3-{(3S)-3-methyl-4-[5-(trifluoromethyl)pyrimidin-2-yl]piperazine-1-carbonyl}cyclobutyl]methyl}-3-(trifluoromethyl)pyridin-2(1H)-one] showed an EC50 (NCI-H1373 cells) of 19.1 nM, an IC50 (PARP1 GST) of 1160 nM and an IC50 (TIPARP GST-(TEV)) of 3.34 nM. The “PARP1/TIPARP IC50 Ratio” value (TIPARP GST-(TEV)) was 347, the EC50 (DLD-1 BRCA2 (−/−) cells) was 997 nM and the EC50 (DLD-1 parent cells) was 15200 nM.

For `C[C@H]1CN(c2ncc(C(F)(F)F)cn2)CCN1C(=O)[C@H]1C[C@@H](Cc2c[nH]c(=O)c(C(F)(F)F)c2)C1` [Example 17, 5-{[(1R,3s)-3-{(2S)-2-methyl-4-[5-(trifluoromethyl)pyrimidin-2-yl]piperazine-1-carbonyl}cyclobutyl]methyl}-3-(trifluoromethyl)pyridin-2(1H)-one], the EC50 (NCI-H1373 cells) was 34.1 nM, the IC50 (PARP1 GST) was 206 nM and the IC50 (TIPARP GST-(TEV)) was 5 nM. The “PARP1/TIPARP IC50 Ratio” value (TIPARP GST-(TEV)) was 41.2, the EC50 (DLD-1 BRCA2 (−/−) cells) was 217 nM and the EC50 (DLD-1 parent cells) was 9750 nM.
